In patent publication US7026342B2, “Method for treating fibrotic diseases or other indications utilizing thiazole, oxazole and imidazole compounds” (Alteon, Inc., priority 2000, dated 2006):
Where a name gives a salt, the structure may show the parent alone.

Key:
cardiovascular tissues = experiment: In vivo studies of vascular stiffening and cardiovascular collagen; parameters: species or system rodents, canines and primates
Source text: (§1) Cardiovascular risk correlates more closely with the systolic and the pulse pressure than with the diastolic pressure. In diabetic patients, the cardiovascular risk profile of diabetic patients is strongly correlated to duration of diabetes, glycemic control and blood pressure. Structural matrix proteins contribute to the function of vessels and the heart, and changes in the physical behavior of cardiovascular walls are believed to be important determinants of circulatory function. In elderly individuals, the loss of compliance in the aorta leads to isolated systolic hypertension, which in turn expands the arterial wall and thereby diminishes the dynamic range of elasticity.

[1] = tested on: Rats with left anterior descending coronary artery ligated; experiment: Rat myocardial infarct model, left anterior descending coronary artery ligated; assay type: in vivo; details: 10 mg/kg intraperitoneal daily for 30 days before ligation and 14 days after
Experimental: Rats received a daily intraperitoneal dose of 10 mg/kg 3-[2-phenyl-2-oxoethyl]-4,5-dimethyl-thiazolium salt (compound A) (n=14) or placebo (n=15) for 30 days. The animals then underwent a thoracotomy and the left anterior descending coronary artery ligated. The chest was then closed and the animals allowed to recover for 14 days while continuing to be treated with compound A or placebo. The animals were then sacrificed and the hearts removed for histological examination. The weight of the infarcted tissue was 0.16±0.04 g for the placebo treated animals compared to 0.11±0.05 g for the compound A treated animals (p=0.04).

Type IV collagen = experiment: In situ hybridization studies, Type IV collagen expression
Source text: as §1

dog model for diabetes = experiment: Dog model for diabetes, ventricular elasticity; assay type: in vivo
Source text: as §1

[2] = tested on: elderly patients with pulse pressures greater than 60 mm Hg; experiment: Phase IIa clinical trial; assay type: in vivo, human
Source text: When the heart pumps blood into the vascular system, the ability of the arteries to expand helps to push blood through the body. When arteries become stiff, as they do in the natural process of aging, the ability of the arteries to expand is diminished and also has consequences for the heart. The heart has to work harder to pump the blood into the stiff arteries, and eventually hypertrophies (enlarges in size) to accomplish this. A hypertrophied heart is an inefficient pump, and is one of the disorders that leads to congestive heart failure. […] The potential clinical benefit of this is to lessen the effort that the heart must expend to push blood throughout the body. The effect is also believed to contribute to preventing hypertrophy and subsequent inefficiency of the heart, which inefficiency would contribute to congestive heart failure.
Atherosclerosis is a disease that involves deposition of blood lipids in plaque in the arteries throughout the body. In coronary arteries, accumulation of plaque progressively leads to reduced coronary flow, with occlusion of the arteries causing focal death of cardiac tissue (myocardial infarction, heart attack). If the amount of tissue that dies is large enough, death ensures. […] Reducing local deposits of plaque should eventually lessen the risk of myocardial infarction and death due to heart attacks.
Pulse pressure is the difference between systolic and diastolic blood pressure. In a young human, systolic pressure is typically 120 mm Hg and diastolic pressure is 80 mm Hg, resulting in a pulse pressure of 40 mm Hg. With age, in many individuals pulse pressure increases, largely due to the increase in systolic pressure that results from stiff vessel disease. In individuals with pulse pressure greater than 60 mm Hg there is an increased risk of death from cardiovascular morbidities. […] This decrease in pulse pressure was believed to be due primarily to the effect of the agent on lowering the systolic blood pressure.

TGFbeta = experiment: In situ hybridization studies, TGFbeta expression
Source text: as §1

Cc1sc[n+](CC(=O)c2ccccc2)c1C [compound A, 3-[2-phenyl-2-oxoethyl]-4,5-dimethyl-thiazolium salt]
mass of collagen in cardiovascular tissues (cardiovascular tissues; in vivo): reduction in the mass of collagen in cardiovascular tissues | vascular stiffening (cardiovascular tissues; in vivo studies in rodents, canines and primates): substantially ameliorating vascular stiffening | weight of the infarcted tissue ([1]; n=14, p=0.04 vs placebo): 0.11 ± 0.05 g | thickness of the ventricular wall in the infarcted zone ([1]; n=14, p=0.09 vs placebo): 2.56±0.22 mm | expression of Type IV collagen (Type IV collagen): reduces the expression of both Type IV collagen and TGFbeta | end diastolic pressure and end diastolic volume, indicators of ventricular elasticity (dog model for diabetes): returned to a value at about the mid-point between the disease impaired value and the value for control dogs | stiffness of arteries, measured by the ratio of stroke volume (ml) to pulse pressure (mm Hg) ([2]; Phase IIa clinical trial): showed an ability to reverse the stiffness of arteries | amount of circulating triglycerides (lipids) ([2]; Phase IIa trial): increased the amount of circulating triglycerides | pulse pressure ([2]; Phase IIa trial, elderly patients with pulse pressures greater than 60 mm Hg, statistically significant): reduced pulse pressure | expression of TGFbeta (TGFbeta): reduces the expression of both Type IV collagen and TGFbeta
